Assay results taken from patent US20030096311A1, “Screening method for compounds” (priority 2000, published 2003).

Tests used:
IFN-γ [1] = molecular target: T1, IFN-γ (Homo sapiens, UniProt P01579); test: ELISA detection of IFN-γ after overnight cell-free incubation with BP; format: binding; conditions: overnight with BP 500 μg/ml
T1 sequence (P01579 24-161 limits assumed): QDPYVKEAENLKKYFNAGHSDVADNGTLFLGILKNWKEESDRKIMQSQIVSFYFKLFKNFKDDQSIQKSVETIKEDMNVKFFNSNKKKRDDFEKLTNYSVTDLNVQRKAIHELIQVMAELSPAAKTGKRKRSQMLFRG
Experimental: The generation of PBMC supernatants and RNA used for this method were prepared as follows. PBMC ([…]) were incubated in RPMI-1640 medium containing TCH (ICN) with or without PHA (Sigma, 2.5 μg/ml). At each time point, samples were centrifuged for 5 min at 400 g, the supernatants collected and analyzed of IFN-γ by ELISA (IDS, Boldon, UK).
Purified recombinant IFN-γ or cell-free supernatants from stimulated PBMC were incubated overnight with BP (500 μg/ml), then assayed by ELISA, Supernatant 1, PBMC stimulated for 20 hours with IL-2; supernatant 2, PBMC stimulated for 43 hours with IL-2; supernatant 3, PBMC stimulated for 43 hours with PHA.

IL-4 = molecular target: T2, IL-4 (Homo sapiens, UniProt P05112); test: Western blot with anti-BP antibody: comparative study with IL-4; format: binding; conditions: IL-4 in place of IFN-γ; compared with IFN-γ
T2 sequence (P05112 25-153): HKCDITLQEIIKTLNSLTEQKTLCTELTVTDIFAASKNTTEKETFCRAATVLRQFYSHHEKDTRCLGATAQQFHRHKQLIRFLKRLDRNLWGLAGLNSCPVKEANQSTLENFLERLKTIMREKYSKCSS
Experimental: (§1) SDS-PAGE and Western Blotting techniques using for this method were performed as follows. Carrier-free recombinant human IFN-γ (PeproTech, London, UK) was made to 10 μg/ml and incubated overnight with or without BP (final concentrations 25, 5, 0.5 mg/ml). At the end of the incubation period, 5×loading buffer was added and 20 μl of each sample loaded onto SDS-polyacrylamide gels. The gels were then analyzed by Western blotting, using a rabbit polyclonal anti-BP antibody. A comparative study was conducted using IL-4 in place of IFN-γ.
(§2) Carrier-free recombinant human IFN-γ (PeproTech, London, UK) were made to 10 μg/ml and incubated overnight with or without Benzyl Penicillin (BP) (final concentrations: 25, 5, 0.5 mg/ml). At the end of the incubation period, 5×loading buffer was added and 20 μl of each sample loaded onto SDS-polyacrylamide gels. For all samples, aliquots were then analyzed by Western blotting, using a rabbit polyclonal anti-BP antibody. A comparative study was conducted using IL-4 in place of IFN-γ.

IFN-γ [2] = molecular target: T3, IFN-γ (Homo sapiens, UniProt P01579); test: IFN-γ induction of MHC class II DR on peripheral blood monocytes after BP pre-incubation; format: cell-based; conditions: IFN-γ 1 μg/ml pre-incubated overnight with various concentrations of BP; HMC-1 pulsed, co-cultured with PBM
T3 sequence (P01579 24-166): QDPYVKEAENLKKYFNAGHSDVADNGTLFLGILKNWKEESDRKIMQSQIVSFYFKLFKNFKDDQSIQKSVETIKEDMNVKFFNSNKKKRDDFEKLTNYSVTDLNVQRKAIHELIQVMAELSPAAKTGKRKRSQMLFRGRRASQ
Experimental: Referring now to FIG. 2, there is shown a graph illustrating the results of a determination of whether the effect of conjugation or interaction of the substance, BP, with IFN-γ has an effect on IFN-γ activity. In summary, IFN-γ was tested for induction of MHC class II DR on human peripheral blood monocytes (PBM) as follows.
IFN-γ (1 μg/ml) was incubated overnight with various concentrations of BP. HMC-1 cells were pulsed with or without IFN-γ (10 ng/ml), BP, or BP-treated IFN-γ, for 30 min and washed 3 times in PBS. The cells were resuspended in IFS and co-cultured (2×10^5) overnight with PBM (2×10^5) in a total volume of 200 μl in polypropylene tubes (Falcon). Six tubes were set up for each HMC-1 treatment.

IFN-γ [3] = molecular target: T3, IFN-γ; test: IFN-γ mediated up-regulation of MCP-1 mRNA in A549 cells (RNase protection); format: cell-based
IFN-γ [4] = molecular target: T3, IFN-γ; test: Western blot with anti-BP antibody: conjugation of BP to IFN-γ; format: binding; set-up: purchased PeproTech, London, UK; conditions: IFN-γ 10 μg/ml overnight with BP 25, 5, 0.5 mg/ml
Experimental: as §1
Referring now to FIG. 1, there is shown a Western blot illustrating the conjugation of BP to or interaction of BP to IFN-γ. FIG. 1 illustrates a method by which conjugation or interaction of a substance with a cytokine, namely IFN-γ, can be determined.
as §2

Structure (SMILES): CC1(C)S[C@@H]2[C@H](NC(=O)Cc3ccccc3)C(=O)N2[C@H]1C(=O)O [BP, benzyl penicillin]
- IFN-γ (pg/ml) detected with BP (IFN-γ [1]; PBMC supernatant 1 (IL-2, 20 hours), without BP 152): 0 pg/mL
- IFN-γ (pg/ml) detected with BP (IFN-γ [1]; PBMC supernatant 2 (IL-2, 43 hours), without BP 389): 0 pg/mL
- IFN-γ (pg/ml) detected with BP (IFN-γ [1]; PBMC supernatant 3 (PHA, 43 hours), without BP >400): 92 pg/mL
- IFN-γ (pg/ml) detected with BP (IFN-γ [1]; recombinant IFN-γ 200 pg/ml, without BP 192): 13 pg/mL
- IFN-γ (pg/ml) detected with BP (IFN-γ [1]; recombinant IFN-γ 1000 pg/ml, without BP 1015): 70 pg/mL
- conjugation to IL-4 (IL-4): conjugates to IL-4, though to a substantially lesser degree than to IFN-γ
- IFN-γ bioactivity (increase in DR median fluorescence on PBM) (IFN-γ [2]): reduced its bioactivity in a concentration dependent manner
- induction of MCP-1 mRNA by IFN-γ (IFN-γ [3]; BP mixed with IFN-γ immediately before addition to A549 cells, lanes 10-12): less marked inhibiting effect
- induction of MCP-1 mRNA by IFN-γ (IFN-γ [3]; IFN-γ pre-incubated overnight with BP (20 or 10 mg/ml), A549 cells, 2 hours, lanes 4-6): inhibited induction of MCP-1 mRNA
- conjugation to IFN-γ (IFN-γ [4]): conjugates to IFN-γ
